Experimental data from patent publication US20250136658A1, “ANTICONVULSANT AND NEUROPROTECTIVE AGENT” (THE UAB RESEARCH FOUNDATION, priority 2022, published 2025).

How the values were obtained:
[1] = tested on: PTZ-induced seizures; assay: PTZ-induced seizure in WT and neurabin null mice; type: in vivo
Procedure: (§1) Induction and evaluation of seizure were performed as described previously (See, for example, Chen Y, Liu Y, Cottingham C, McMahon L, Jiao K, Greengard P, et al. Neurabin scaffolding of adenosine receptor and RGS4 regulates anti-seizure effect of endogenous adenosine. J Neurosci. 2012, 32 (8): 2683-95). Ten to twelve week-old male mice were injected (i.p.) with kainate (Sigma) at 20 or 25 mg/kg (dissolved in saline), together with or without DPCPX (Sigma, 0.5 mg/kg in saline) or yohimbine (Sigma, 0.5 mg/kg in saline). Seizure severity was scored by trained observers blind to genotype and/or treatment. The severity of seizure behaviors was scored on a scale of 0 to 7, with 0 representing normal behavior and 7 representing death (see, for example, Yang D D, Kuan C Y, Whitmarsh A J, Rincon M, Zheng T S, Davis R J, et al. Absence of excitotoxicity-induced apoptosis in the hippocampus of mice lacking the Jnk3 gene. Nature. 1997, 389 (6653): 865-70; and Cottingham C, Chen Y, Jiao K, and Wang Q. The antidepressant desipramine is an arrestin-biased ligand at the alpha (2A)-adrenergic receptor driving receptor down-regulation in vitro and in vivo. J Biol Chem. 2011, 286 (41): 36063-75). To induce seizures with pentylenetetrazole (PTZ), mice were injected (i.p.) with PTZ at 40 mg/kg (dissolved in saline), with or without 8-Cyclopentyl-1,3-dipropylxanthine (DPCPX). Seizure severity was scored every 4 min for 30 min.

[2] = biological target: T1, GST-Nrb331-453 and [35S]-labeled A1R202-326 (A1R-neurabin interaction) (Homo sapiens, UniProt Q9ULJ8); assay: In vitro GST competition pull-down; type: binding; settings: peptide 0.1 μg/μl
T1 construct: made in house
T1 sequence (Q9ULJ8 331-453): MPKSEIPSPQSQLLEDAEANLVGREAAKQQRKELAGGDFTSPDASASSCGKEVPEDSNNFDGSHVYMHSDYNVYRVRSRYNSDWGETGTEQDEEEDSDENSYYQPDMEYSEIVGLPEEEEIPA
Source text: FIG. 5A is a competition pull-down assay testing the abilities of A1R 3i loop (3iL) and C-tail (CT) peptides in blocking the interaction between GST-Nrb331-453 and [^35S]-labeled A1R202-326. […] A1R202-326 pulled down by GST-Nrb331-453. Free probe represents 1/10 of the input in each reaction.
FIG. 5B is a competition pull-down assay testing the abilities of A1R 3i loop (3iL) and C-tail (CT) peptides in blocking the interaction between GST-Nrb331-453 and [^35S]-labeled A1R202-326. In the graphical representation, quantitation of the amount of [^35S] A1R202-326 pulled down by GST-Nrb331-453 is shown. Free probe represents 1/10 of the input in each reaction. * represents p<0.05 vs. BSA control by one-way ANOVA Dunnett's multiple comparisons test. N=3/group.
Preparation of GST fusion proteins, synthesis of [^35S]-labeled in vitro translated probes, and pull-down assays were performed as described previously (See, for example, Chen Y, Booth C, Wang H, Wang R X, Terzi D, Zachariou V, et al. Effective Attenuation of Adenosine A1R Signaling by Neurabin Requires Oligomerization of Neurabin. Mol Pharmacol. 2017; 92 (6): 630-9; and Chen Y, Liu Y, Cottingham C, McMahon L, Jiao K, Greengard P, et al. Neurabin scaffolding of adenosine receptor and RGS4 regulates anti-seizure effect of endogenous adenosine. J Neurosci. 2012, 32 (8): 2683-95). […]

[3] = tested on: kainate-induced seizures; assay: Kainate-induced seizure in WT and Rgs4-/- mice; type: in vivo
Procedure: as §1, with “To induce seizures with pentylenetetrazole (PTZ), mice were injected (i.p.) with PTZ at 40 mg/kg (dissolved in saline), with or without 8-Cyclopentyl-1,3-dipropylxanthine (DPCPX).” left out

[4] = tested on: kainate-induced seizures; assay: Kainate-induced seizure in mice given peptide (icv or intranasal); type: in vivo
Procedure: as §1, with “To induce seizures with pentylenetetrazole (PTZ), mice were injected (i.p.) with PTZ at 40 mg/kg (dissolved in saline), with or without 8-Cyclopentyl-1,3-dipropylxanthine (DPCPX).” left out, “min. […]” for “min.”

[5] = tested on: spontaneous epileptic spikes in APP/PS1 mice; assay: EEG recording of spontaneous epileptic activity in APP/PS1 mice; type: in vivo; settings: intranasal peptide plus i.p. DPCPX
Procedure: Implantation of electrodes for EEG recordings was performed under isoflurane anesthesia (4.5% for induction, approximately 2% for maintenance). In brief, 1 mm stainless steel electrodes (P1 Technologies, Roanoke, VA) were implanted into the primary somatosensory cortex at 1.8, 0.02, 1 (AP, ML, DV), and reference electrodes anterior to the bregma were implanted subdurally through small holes drilled in the skull. These electrodes were held in place with Dental cement kit (Stoelting), C&B Metabond Quick Adhesive Cement System (Parkell). The ground electrode was sutured in the cervical paraspinous area. […] EEG activity was recorded for 20 hrs using Biopac Systems amplifiers (Biopac Systems EEG100C) and AcqKnowledge 4.2 EEG Acquisition and analyzed with the Reader Software (Biopac Systems).
A total of 150 hrs of data was analyzed, 54 hrs for nTg mice and 96 hrs for APP/PS1 transgenic mice. Six hrs of recording were analyzed for each animal. […] When p-operator algorithm detected a spike, all signals were visually inspected to include in the analysis only those that were true positives in order to avoid non-epileptic artifacts caused by electrical noise (e.g., grooming) during spike selection. Spectral content of EEG signals were calculated using short-time Fourier transform (FFT).

[6] = tested on: hippocampal CA3-CA1 synapses; assay: fEPSP recording in acute hippocampal slices; type: cell-based, mice
[7] = tested on: Akt phosphorylation at Thr 308; assay: A1R-mediated Akt activation in primary hippocampal neurons (Western blot); type: cell-based, mice
Procedure: Primary hippocampal neurons derived from WT or neurabin deficiency (Ppp1r9a^−/−) mice were treated with R-PIA at the indicated concentrations. Representative blots of phospho-Akt (pAkt, Thr308) are shown.
Primary hippocampal neurons derived from WT or neurabin deficiency (Ppp1r9a^−/−) mice were treated with R-PIA at the indicated concentrations. Quantitation of phospho-Akt (pAkt, Thr308) is shown. *** represents p<0.001 by two-way ANOVA. N=4/group.
WT and Ppp1r9a^−/− neurons were stimulated with 1 μM R-PIA for the indicated time durations. Representative blots of pAkt are shown.
WT and Ppp1r9a^−/− neurons were stimulated with 1 μM R-PIA for the indicated time durations. Quantitation of pAkt is shown. * represents p<0.05; ** represents p<0.01; **** represents p<0.0001 by two-way ANOVA for multiple comparisons. N=4/group. Data are shown as mean±SEM.

[8] = tested on: primary hippocampal neurons; assay: Glutamate-induced cell death in primary hippocampal neurons; type: cell-based, mice; settings: 100 μM glutamate plus 10 μM R-PIA
Procedure: Primary hippocampal culture was performed as described previously (Chen Y, Liu Y, Cottingham C, McMahon L, Jiao K, Greengard P, et al. Neurabin scaffolding of adenosine receptor and RGS4 regulates anti-seizure effect of endogenous adenosine. J Neurosci. 2012, 32 (8): 2683-95). […] In brief, hippocampal neurons were cultured in 24-well plates for 13-14 days in vitro and treated with (1) vehicle, (2) 100 μM glutamate alone, (3) 100 μM glutamate plus 10 μM R-PIA, (4) 100 μM glutamate, 10 μM R-PIA, plus 30 μM LY294002, for 30 min at 37° C. Neurons were then washed twice, and incubated with regular growth medium at 37° C. for an additional 24 hrs. Neurons were stained with 4 μM calcein-AM and 4 μM EthD-1 in DPBS and mounted for imaging under a fluorescence microscope.

Question: With C1CCc2nnnn2CC1 [PTZ, pentylenetetrazole] as the compound, how does the “PTZ-induced lethality within 40 minutes” value ([1]; WT mice, PTZ alone) read?
Answer: The value was “About 10%”.

Question: How did the “direct interaction of A1R (aa202-326) with Nrb331-453” value [2] turn out when “3i loop peptide: peptide carrying the sequence of the A1R 3i loop (aa202-235) (EVFYLIRKQLNKKVSASSGDPQKYYGKELKIAKS; UniProt P30542 202-235, looked up, fragment)” was run?
Answer: The value was “no effect”.

Question: For C=C(C)[C@H]1CN[C@H](C(=O)O)[C@H]1CC(=O)O [kainate], which mortality after kainate ([3]; WT mice, kainate 20 mg/kg) is on record?
Answer: Its mortality after kainate is “over 40%”.

Question: For “A1R-CT: peptide carrying the sequence of the A1R C-tail (aa293-326), without TAT fusion (QKFRVTFLKIWNDHFRCQPAPPIDEDLPEERPDD; UniProt P30542 293-326, looked up, fragment)”, which “direct interaction of A1R (aa202-326) with Nrb331-453” value [2] is on record?
Answer: The value was “markedly reduced”.

Question: For CCCn1c(=O)c2[nH]c(C3CCCC3)nc2n(CCC)c1=O [DPCPX, 8-Cyclopentyl-1,3-dipropylxanthine], which “PTZ-induced seizure severity on co-treatment with DPCPX” value ([1]; WT and neurabin null mice, vs PTZ alone) is on record?
Answer: The value was “continued to progress to a much more severe level”.

Question: And the “death after combined treatment with PTZ and DPCPX” value ([1]; both genotypes (WT, Ppp1r9a-/-))?
Answer: Its value is “more than 55%”.

Question: And the “anti-seizure effect of A1R-CT on co-treatment with DPCPX” value ([4]; icv peptide)?
Answer: Its value is “no longer observed”.

Question: And the “anti-seizure effect of TAT-A1R-CT peptide on co-treatment with DPCPX” value ([4]; intranasal peptide)?
Answer: Its value is “abolished”.

Question: What about the “effect of TAT-A1R-CT on epileptic activities with DPCPX” value [5] of the same compound?
Answer: The value was “failed to reduce epileptic activities”.

Question: What about the “effect of A1R blockade on seizure severity and mortality rate” value ([3]; Rgs4-/- mice, kainate plus DPCPX, to a level similar to WT) of the same compound?
Answer: The value was “increased the seizure severity and mortality rate”.

Question: How did the “inhibition of baseline transmission” value ([6]; WT mice slices, 100 nM) turn out when CC(Cc1ccccc1)Nc1ncnc2c1ncn2[C@@H]1O[C@H](CO)[C@@H](O)[C@H]1O (single isomer, unassigned; (-)) [R-PIA, (−)-N6-(2-Phenylisopropyl) adenosine] was run?
Answer: Its value is “about 75%”.

Question: What about the “inhibition of fEPSP” value ([6]; WT mice slices, 10, 30, 100 nM) of the same compound?
Answer: Its value is “dose-dependently inhibited”.

Question: And the “inhibition of fEPSP vs WT slices” value ([6]; slices from Ppp1r9a-/- or Rgs4-/- mice, same concentration (10 nM, FIG. 2E-F))?
Answer: The value was “significantly higher level of inhibition”.

Question: What about the “Akt phosphorylation at Thr 308” value ([7]; WT neurons) of the same compound?
Answer: Its value is “dose-dependent increase”.

Question: And the “Akt activation over time” value ([7]; WT neurons, 1 μM R-PIA)?
Answer: The value was “desensitized after 30 min stimulation”.

Question: And the “phospho-Akt levels at 30 min” value ([7]; neurons lacking neurabin, 1 μM R-PIA)?
Answer: The value was “no apparent reduction”.

Question: What about the “Akt phosphorylation vs WT neurons” value ([7]; neurons lacking neurabin, same dose) of the same compound?
Answer: The value was “significantly higher level of Akt phosphorylation”.

Question: What about the “effect on glutamate-induced neuronal death” value [8] of the same compound?
Answer: Its value is “protective effect”.
